From patent US11752156B2, “Compositions and methods for treating hyperproliferative skin disorders” (Athenex HK Innovative Limited, priority 2018, dated 2023)
Values joined by “and” are separate entries in the source; they are usually repeats but may differ in a detail not shown here. Equal values may be shown once. Read-outs that look alike come from different tables or passages of the source.

Assays:
[1] = system: human keratinocytes in culture (cell line CCD-1106 KERTr); assay: cell viability / cell growth of human keratinocytes in culture, KX01, calcipotriol and fixed-ratio combinations; type: cell-based; parameters: cell growth (cell viability): unit not given here
Text: Typical data from studies of the effects of compound KX01 provided in combination with calcipotriol on growth of human keratinocytes in culture (cell line CCD-1106 KERTr) are shown in FIGS. 1 to 3 and Tables 1 to 6. FIG. 1 and Tables 1 and 2 show the degree of growth inhibition found in a typical study performed with KX01 and calcipotriol at a 1:5 ratio.

[2] = system: human keratinocyte cell line; assay: inhibition of human keratinocyte growth, individual dose response, 72 hours, MTT assay; type: cell-based; conditions: 72 hour exposure
Protocol: FIG. 4: Inhibition of human keratinocyte growth versus KX01 concentration (treatment duration: 72 hours; cell growth measured using the MTT assay). […] FIG. 5: Inhibition of human keratinocyte growth versus calcipotriol concentration (treatment duration: 72 hours; cell growth measured using the MTT assay). […] A human keratinocyte cell line was used in these studies.

[3] = system: CCD 1106 KERTr human keratinocyte cell line; assay: MTT cell proliferation assay, 72 hours, dark or blue light, keratinocytes; type: cell-based; conditions: for inhibition at 0.01 µM / inhibition at 0.02 µM / inhibition at 0.04 µM / inhibition at 0.08 µM: Homo sapiens, read-out: growth inhibition relative to untreated control
Protocol: The effects of combined treatment with KX01, a vitamin D derivative, and/or blue/UV light exposure were characterized using a cell proliferation assay. Cell proliferation was assessed by using an MTT assay. Cells were seeded in 96-well plate (3,000-5,000 cells per well) and treated with test compounds at varying concentrations (e.g. KX01: 5 to 80 nM; calcipotriol 5 to 1,280 nM) for 72 hours, either in the dark or exposed to blue light irradiation (for 2, 4, or 6 hours). To each well, 10 μl of 3-(4,5-dimethylthiazol-2-yl)-2,5-diphenyltetrazolium bromide (MTT) (RPI Corporation™) solution (5 mg/ml in PBS) was added and incubated at 37° C. for 3 hours. Next, 100 μl of 20% SDS was added to each well. After overnight incubation at 37° C., the absorbance in each well was measured at 570 nm in a microplate reader (Molecular Devices™). The cell growth curve and GI50s were calculate using GraphPad Prism™ 5 software. Tables 13 and 14 show the results of cell growth inhibition studies (expressed as a percentage relative to control cell growth) for treatment with either KX01 or calcipotriol in combination with exposure to blue light. […] The percentage of growth inhibition relative to untreated control is shown. […] The percentage of growth inhibition relative to untreated control is shown. Tables 15 to 18 show the effects of combined treatment with KX01, calcipotriol, and exposure to blue light at 0 hours, 2 hours, 4 hours, and 6 hours of light exposure (respectively). Values are expressed as the percentage of growth inhibition relative to cells grown under control conditions (0 hours blue light, [KX01]=0, [calcipotriol]=0). […] Results are shown below in Tables 27 to Table 30, which show results from 0, 2, 4, and 6 hours of blue light exposure (respectively). Values are expressed as the percentage of growth inhibition relative to cells grown under control conditions (0 hours blue light, [KX01]=0, [calcipotriol]=0).

[4] = system: CCD-1106 KERTr cells; assay: FITC annexin V / PI apoptosis assay by flow cytometry, 24 hours; type: cell-based, human; conditions: 24 hours
Protocol: In addition to growth inhibition, Inventors also investigated the effect of KX01 on apoptosis in keratinocytes. CCD-1106 KERTr cells (1×10^6) were seeded in 60 mm dishes and treated with test compounds at varying concentrations (e.g. KX01: 20 to 500 nM; calcipotriol 50 to 1000 nM) for 24 hours. Cell apoptosis was assessed by using a FITC annexin V apoptosis detection kit (BD Biosciences™) according to manufacturer's instruction. Briefly, cells were collected in 1× binding buffer and incubated with fluorescein isothiocyanate (FITC)-conjugated annexin V and propidium iodide (PI) for 15 minutes at room temperature in the dark, followed by flow cytometry analysis using a LSRFortessa™ flow cytometer (BD Biosciences™).

Q: `O=C(Cc1ccc(-c2ccc(OCCN3CCOCC3)cc2)cn1)NCc1ccccc1` [KX01, N-benzyl-2-(5-{4-[2-(morpholine-4-yl)ethoxy]phenyl}pyridine-2-yl)acetamide] was tested. Which GI50 [1] did it give?
A: 38 nM and 36 nM

Q: And the GI50 ([1]; Homo sapiens, CCD-1106)?
A: 32 nM

Q: What about the viability at 0.000333 µM ([1]; Homo sapiens, CCD-1106, concentration 0.333 nM) of the same compound?
A: 100%

Q: What about the viability at 0.001 µM ([1]; Homo sapiens, CCD-1106, concentration 1 nM) of the same compound?
A: 97%

Q: What about the viability at 0.003 µM ([1]; Homo sapiens, CCD-1106, concentration 3 nM) of the same compound?
A: 90.9%

Q: And the viability at 0.009 µM ([1]; Homo sapiens, CCD-1106, concentration 9 nM)?
A: 94.7%

Q: What about the viability at 0.027 µM ([1]; Homo sapiens, CCD-1106, concentration 27 nM) of the same compound?
A: 67.1%

Q: What about the viability at 0.243 µM ([1]; Homo sapiens, CCD-1106, concentration 243 nM) of the same compound?
A: 2.07%

Q: And the viability at 0.729 µM ([1]; Homo sapiens, CCD-1106, concentration 729 nM)?
A: 6.66%

Q: What about the viability at 2.187 µM ([1]; Homo sapiens, CCD-1106, concentration 2187 nM) of the same compound?
A: 8.91%

Q: What about the “cell growth (cell viability)” value ([1]; concentration 0.333 nM, 0.000333 µM) of the same compound?
A: 102.3 and 98.0

Q: And the “cell growth (cell viability)” value ([1]; concentration 1 nM, 0.001 µM)?
A: 99.9 and 101.3

Q: What about the “cell growth (cell viability)” value ([1]; concentration 3 nM, 0.003 µM) of the same compound?
A: 100.0 and 96.6

Q: And the “cell growth (cell viability)” value ([1]; concentration 9 nM, 0.009 µM)?
A: 100.2 and 98.2

Q: What about the “cell growth (cell viability)” value ([1]; concentration 27 nM, 0.027 µM) of the same compound?
A: 79.8 and 80.1

Q: And the “cell growth (cell viability)” value ([1]; concentration 729 nM, 0.729 µM)?
A: 9.9 and 7.3

Q: What about the “cell growth (cell viability)” value ([1]; concentration 2187 nM, 2.187 µM) of the same compound?
A: 14.9 and 9.5

Q: And the IC50 [2]?
A: 41.9 nM

Q: What about the inhibition at 0.01 µM ([3]; CCD-1106, 2 h, KX01 10 nM, blue light 2 h) of the same compound?
A: 27%

Q: And the inhibition at 0.02 µM ([3]; CCD-1106, 2 h, KX01 20 nM, blue light 2 h)?
A: 63%

Q: What about the inhibition at 0.04 µM ([3]; CCD-1106, 2 h, KX01 40 nM, blue light 2 h) of the same compound?
A: 92%

Q: What about the inhibition at 0.01 µM ([3]; CCD-1106, 4 h, KX01 10 nM, blue light 4 h) of the same compound?
A: 47%

Q: And the inhibition at 0.02 µM ([3]; CCD-1106, 4 h, KX01 20 nM, blue light 4 h)?
A: 64%

Q: And the inhibition at 0.04 µM ([3]; CCD-1106, 4 h, KX01 40 nM, blue light 4 h)?
A: 87%

Q: And the inhibition at 0.08 µM ([3]; CCD-1106, 4 h, KX01 80 nM, blue light 4 h)?
A: 92%

Q: What about the inhibition at 0.01 µM ([3]; CCD-1106, 6 h, KX01 10 nM, blue light 6 h) of the same compound?
A: 56%

Q: What about the inhibition at 0.02 µM ([3]; CCD-1106, 6 h, KX01 20 nM, blue light 6 h) of the same compound?
A: 70%

Q: And the inhibition at 0.04 µM ([3]; CCD-1106, 6 h, KX01 40 nM, blue light 6 h)?
A: 88%

Q: And the inhibition at 0.08 µM ([3]; CCD-1106, 6 h, KX01 80 nM, blue light 6 h)?
A: 87%

Q: What about the “growth inhibition relative to untreated control” value ([3]; KX01 10 nM, blue light 0 h) of the same compound?
A: 4% and 9% and 6%

Q: What about the “growth inhibition relative to untreated control” value ([3]; KX01 10 nM, blue light 2 h) of the same compound?
A: 32% and 34%

Q: And the “growth inhibition relative to untreated control” value ([3]; KX01 10 nM, blue light 4 h)?
A: 50%

Q: And the “growth inhibition relative to untreated control” value ([3]; KX01 10 nM, blue light 6 h)?
A: 62% and 57%

Q: And the “growth inhibition relative to untreated control” value ([3]; KX01 20 nM, blue light 0 h)?
A: 49%

Q: And the “growth inhibition relative to untreated control” value ([3]; KX01 20 nM, blue light 2 h)?
A: 74% and 68%

Q: What about the “growth inhibition relative to untreated control” value ([3]; KX01 20 nM, blue light 4 h) of the same compound?
A: 69% and 68%

Q: What about the “growth inhibition relative to untreated control” value ([3]; KX01 20 nM, blue light 6 h) of the same compound?
A: 67% and 73%

Q: What about the “growth inhibition relative to untreated control” value ([3]; KX01 40 nM, blue light 0 h) of the same compound?
A: 90% and 45%

Q: What about the “growth inhibition relative to untreated control” value ([3]; KX01 40 nM, blue light 2 h) of the same compound?
A: 98% and 91%

Q: What about the “growth inhibition relative to untreated control” value ([3]; KX01 40 nM, blue light 4 h) of the same compound?
A: 86%

Q: And the “growth inhibition relative to untreated control” value ([3]; KX01 40 nM, blue light 6 h)?
A: 84%

Q: And the “growth inhibition relative to untreated control” value ([3]; KX01 80 nM, blue light 0 h)?
A: 96% and 48% and 95%

Q: And the “growth inhibition relative to untreated control” value ([3]; KX01 80 nM, blue light 4 h)?
A: 93% and 90%

Q: What about the “growth inhibition relative to untreated control” value ([3]; KX01 80 nM, blue light 6 h) of the same compound?
A: 83%

Q: And the “effect of blue light exposure with the drug on cell growth inhibition” value ([3]; for example 6 hours of blue light with 10 nm KX01)?
A: Synergistic effects

Q: And the late apoptic cells ([4]; KX01 20 nM)?
A: 2.09%

Q: What about the late apoptic cells ([4]; KX01 40 nM) of the same compound?
A: 3.50%

Q: What about the late apoptic cells ([4]; KX01 100 nM) of the same compound?
A: 6.33%

Q: And the late apoptic cells ([4]; KX01 500 nM)?
A: 4.34%
